Measurements as given in the supplement of paper PMC9780213.

What was measured:
Details in all cases: treatment time: 24 h
[1] = system: U2OS; test: cell count relative to DMSO control (panel A, nuclei/RNA/PMG/mitochondria stain) (fraction of control); higher = more cells (less toxicity)
Method: (§1)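 U2OS-derived cells in 384-well plates were treated for 24 h with a 7-point 2-fold dilution series (top dose 20 µM for most compounds; final max DMSO 1%), then fixed, stained in four marker panels and imaged on a Cellomics ArrayScan. Cell count per treatment (three replicate plates merged) is given as a fraction of DMSO control. Panel A used parental U2OS, panel B U2OS-mOrange2-Peroxisome, panel C1 U2OS-LMNB1-TUBA1B-ACTB (DRAQ5 nuclei).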

[2] = system: U2OS-LMNB1-TUBA1B-ACTB; test: cell count relative to DMSO control (panel C1, DRAQ5/ER stain) (fraction of control); higher = more cells (less toxicity)
Method: as §1

[3] = system: U2OS-mOrange2-Peroxisome; test: cell count relative to DMSO control (panel B, lysosome/peroxisome/lipid stain) (fraction of control); higher = more cells (less toxicity)
Method: as §1

O=c1[nH]c(=O)n([C@H]2C[C@H](O)[C@@H](CO)O2)cc1F [floxuridine]
cell count
Details | 0.3125 µM | 0.625 µM | 1.25 µM | 2.5 µM | 5 µM | 10 µM | 20 µM
[1] | 0.806 | 0.815 | 0.744 | 0.681 | 0.609 | 0.58 | 0.558
[2] | 1.06 | 1 | 0.979 | 0.737 | 0.792 | 0.929 | 0.892
[3] | 1.52 | 1.54 | 1.34 | 1.14 | 1.11 | 0.829 | 1.31

CC(C)n1c(/C=C/C(O)CC(O)CC(=O)O)c(-c2ccc(F)cc2)c2ccccc21 (stereo unspecified) [fluvastatin]
cell count
Details | 0.3125 µM | 0.625 µM | 1.25 µM | 2.5 µM | 5 µM | 10 µM | 20 µM
[1] | 0.901 | 0.848 | 0.867 | 0.777 | 0.826 | 0.702 | 0.441
[2] | 1.01 | 0.939 | 0.943 | 0.931 | 0.899 | 0.892 | 0.849
[3] | 0.991 | 0.839 | 0.835 | 0.93 | 0.815 | 0.872 | 0.22

Nc1ccn([C@@H]2O[C@H](CO)[C@@H](O)C2(F)F)c(=O)n1 [gemcitabine]
cell count
Details | 0.3125 µM | 0.625 µM | 1.25 µM | 2.5 µM | 5 µM | 10 µM | 20 µM
[1] | 1.03 | 0.658 | 0.435 | 0.374 | 0.396 | 0.379 | 0.412
[2] | 1.03 | 0.582 | 0.411 | 0.391 | 0.383 | 0.396 | 0.388
[3] | 0.811 | 0.529 | 0.498 | 0.576 | 0.543 | 0.595 | 0.496

Fc1cc(F)c2c(c1)[C@H]1C=CC[C@H]1C(c1cccnc1)N2 (stereo partly specified) [golgicide-A]
cell count
Details | 0.3125 µM | 0.625 µM | 1.25 µM | 2.5 µM | 5 µM | 10 µM | 20 µM
[1] | 0.981 | 1 | 0.929 | 1.06 | 1.03 | 0.826 | 0.566
[2] | 0.952 | 1.05 | 0.982 | 1.1 | 1.14 | 1.05 | 0.778
[3] | 0.814 | 0.73 | 0.804 | 0.719 | 0.89 | 0.916 | 0.833

O=C(CCCN1CCC(O)(c2ccc(Cl)cc2)CC1)c1ccc(F)cc1 [haloperidol]
cell count
Details | 0.3125 µM | 0.625 µM | 1.25 µM | 2.5 µM | 5 µM | 10 µM | 20 µM
[1] | 1.02 | 0.985 | 0.893 | 0.939 | 0.979 | 1 | 0.956
[2] | 1.03 | 1.05 | 1.03 | 0.979 | 1.05 | 1.11 | 1.05
[3] | 1.19 | 1.13 | 1.11 | 0.88 | 1.29 | 1.16 | 1.32

CCc1c2c(nc3ccc(OC(=O)N4CCC(N5CCCCC5)CC4)cc13)-c1cc3c(c(=O)n1C2)COC(=O)[C@]3(O)CC [irinotecan]
cell count
Details | 0.3125 µM | 0.625 µM | 1.25 µM | 2.5 µM | 5 µM | 10 µM | 20 µM
[1] | 0.95 | 0.795 | 0.732 | 0.665 | 0.64 | 0.592 | 0.612
[2] | 0.966 | 0.998 | 0.849 | 0.82 | 0.79 | 0.694 | 0.66
[3] | 0.759 | 0.66 | 0.641 | 0.621 | 0.666 | 0.771 | 0.742

C/C1=C/C(=O)O[C@@H]2C[C@@H](CC[C@H](C)/C=C\C=C\CC1)O[C@@](O)([C@@H]1CSC(=O)N1)C2 [latrunculin-a]
cell count
Details | 0.000781 µM | 0.0015625 µM | 0.003125 µM | 0.00625 µM | 0.0125 µM | 0.025 µM | 0.05 µM
[1] | 0.372 | 0.438 | 0.369 | 0.312 | 0.278 | 0.194 | 0.121
[2] | 0.337 | 0.521 | 0.464 | 0.461 | 0.379 | 0.304 | 0.196
[3] | 0.66 | 0.625 | 0.479 | 0.467 | 0.312 | 0.155 | 0.0636

CC(=O)N[C@@H](CC(C)C)C(=O)N[C@@H](CC(C)C)C(=O)N[C@H](C=O)CCCN=C(N)N [leupeptin]
cell count
Details | 0.3125 µM | 0.625 µM | 1.25 µM | 2.5 µM | 5 µM | 10 µM | 20 µM
[1] | 1.07 | 1.09 | 0.933 | 1.09 | 1.04 | 1.03 | 1.01
[2] | 1.07 | 1.1 | 1.06 | 1.16 | 1.05 | 1.02 | 1.01
[3] | 0.839 | 0.806 | 0.749 | 0.771 | 0.895 | 0.952 | 1.27

O=NN(CCCl)C(=O)NC1CCCCC1 [lomustine]
cell count
Details | 0.3125 µM | 0.625 µM | 1.25 µM | 2.5 µM | 5 µM | 10 µM | 20 µM
[1] | 0.856 | 0.819 | 0.952 | 0.895 | 1.02 | 0.818 | 0.7
[2] | 0.906 | 0.972 | 0.927 | 0.932 | 1.02 | 0.856 | 0.73
[3] | 0.854 | 1.08 | 0.93 | 0.952 | 1.22 | 1.12 | 0.879

COc1cc(-n2c(=S)[nH]c3ccccc3c2=O)c(Cl)cc1Cl [mdivi-1]
cell count
Details | 0.3125 µM | 0.625 µM | 1.25 µM | 2.5 µM | 5 µM | 10 µM | 20 µM
[1] | 1.02 | 0.927 | 1.04 | 1.01 | 1 | 0.643 | 1.04
[2] | 1.02 | 1.01 | 1.08 | 1.03 | 1.02 | 0.74 | 1.09
[3] | 0.787 | 0.837 | 0.803 | 1.03 | 1.03 | 0.618 | 0.921

CCN(CC)CCCC(C)Nc1c2ccc(Cl)cc2nc2ccc(OC)cc12 (stereo unspecified) [mepacrine]
cell count
Details | 0.3125 µM | 0.625 µM | 1.25 µM | 2.5 µM | 5 µM | 10 µM | 20 µM
[1] | 1.02 | 0.981 | 0.98 | 0.921 | 0.925 | 0.85 | 0.616
[2] | 1.13 | 1.01 | 1.03 | 1.07 | 1.08 | 1.05 | 0.727
[3] | 0.781 | 0.889 | 0.854 | 0.763 | 0.778 | 0.733 | 0.449

CN(Cc1cnc2nc(N)nc(N)c2n1)c1ccc(C(=O)N[C@@H](CCC(=O)O)C(=O)O)cc1 [methotrexate]
cell count
Details | 0.07812 µM | 0.15625 µM | 0.3125 µM | 0.625 µM | 1.25 µM | 2.5 µM | 5 µM
[1] | 0.782 | 0.699 | 0.705 | 0.696 | 0.691 | 0.689 | 0.561
[2] | 0.922 | 0.8 | 0.838 | 0.851 | 0.728 | 0.663 | 0.497
[3] | 0.761 | 0.757 | 0.663 | 0.807 | 0.808 | 0.78 | 0.748

CO[C@@]12[C@H](COC(N)=O)C3=C(C(=O)C(C)=C(N)C3=O)N1C[C@@H]1N[C@@H]12 [mitomycin-c]
cell count
Details | 0.3125 µM | 0.625 µM | 1.25 µM | 2.5 µM | 5 µM | 10 µM | 20 µM
[1] | 0.677 | 0.708 | 0.683 | 0.639 | 0.59 | 0.531 | 0.278
[2] | 0.882 | 0.789 | 0.864 | 0.812 | 0.746 | 0.672 | 0.38
[3] | 0.696 | 0.65 | 0.706 | 0.72 | 0.6 | 0.363 | 0.279

O=C1c2c(O)ccc(O)c2C(=O)c2c(NCCNCCO)ccc(NCCNCCO)c21 [mitoxantrone]
cell count
Details | 0.07812 µM | 0.15625 µM | 0.3125 µM | 0.625 µM | 1.25 µM | 2.5 µM | 5 µM
[1] | 0.956 | 0.887 | 0.662 | 0.503 | 0.411 | 0.455 | 0.447
[2] | 1.05 | 0.693 | 0.532 | 0.465 | 0.434 | 0.403 | 0.371
[3] | 1.16 | 0.953 | 0.648 | 0.642 | 0.605 | 0.544 | 0.548

CC[C@@]1([C@@H]2O[C@@H]([C@H]3O[C@@](O)(CO)[C@H](C)C[C@@H]3C)C[C@@H]2C)CC[C@H]([C@]2(C)CC[C@]3(C[C@H](O)[C@@H](C)[C@@H]([C@@H](C)[C@@H](OC)[C@H](C)C(=O)O)O3)O2)O1 [monensin]
cell count
Details | 0.3125 µM | 0.625 µM | 1.25 µM | 2.5 µM | 5 µM | 10 µM | 20 µM
[1] | 0.746 | 0.606 | 0.504 | 0.422 | 0.375 | 0.339 | 0.332
[2] | 0.932 | 0.699 | 0.642 | 0.412 | 0.421 | 0.406 | 0.418
[3] | 0.691 | 0.713 | 0.78 | 0.617 | 0.617 | 0.641 | 0.633

COC(=O)Nc1nc2ccc(C(=O)c3cccs3)cc2[nH]1 [nocodazole]
cell count
Details | 0.3125 µM | 0.625 µM | 1.25 µM | 2.5 µM | 5 µM | 10 µM | 20 µM
[1] | 1.06 | 0.962 | 1.03 | 0.792 | 0.692 | 0.317 | 0.196
[2] | 1.12 | 0.993 | 1.01 | 0.999 | 0.737 | 0.414 | 0.369
[3] | 0.837 | 0.656 | 0.775 | 0.628 | 0.411 | 0.425 | 0.381
